# Measured values reported in patent US8575167B2, “Spiro compounds having stearoyl-CoA desaturase action” (Takeda Pharmaceutical Company Limited, priority 2007, dated 2013).
# Biological target: T1, SCD (Rattus norvegicus, UniProt P07308)
# T1 construct: an enzyme reaction using rat liver microsome (20 μg) was performed for 15 min; from tissue; host or cells: rat liver microsome fraction
# T1 sequence (P07308 1-358): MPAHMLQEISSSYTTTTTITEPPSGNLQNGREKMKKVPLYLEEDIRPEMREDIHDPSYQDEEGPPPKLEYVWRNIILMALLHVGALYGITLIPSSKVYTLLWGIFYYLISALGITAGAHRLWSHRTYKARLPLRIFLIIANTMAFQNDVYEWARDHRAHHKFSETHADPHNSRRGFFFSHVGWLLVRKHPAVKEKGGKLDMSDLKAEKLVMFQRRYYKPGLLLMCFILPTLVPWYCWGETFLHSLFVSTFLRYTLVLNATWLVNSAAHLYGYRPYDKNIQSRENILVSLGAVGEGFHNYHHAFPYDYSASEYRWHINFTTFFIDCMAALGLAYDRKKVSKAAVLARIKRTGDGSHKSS
# Assay: Measurement of SCD inhibitory activity using microsome (TLC detection system)
# Type: biochemical
# Conditions: rat liver microsome (20 μg), 15 min, [14C] stearoyl-CoA; test compound (10 mM) diluted to 3/1000 with 3× buffer, 10 μL in 30 μL reaction
# Description: (Test Method: Measurement of SCD Inhibitory Activity Using Microsome (TLC Detection System))
# A test compound (10 mM) diluted with DMSO in advance was secondarily diluted to 3/1000 with 3× buffer (300 mmol/L NaH2PO4 [pH 7.4], 450 mM KCl, 30 mM NaF, 9 mM MgCl2, 4.5 mM glutathione [reduced form], 0.3% BSA [fatty acid free, SIGMA]). The test compound (10 μL) diluted with the assay buffer was dispensed to a PP 96-deep well block, and a microsome fraction (10 μL) diluted with a microsome buffer was added thereto. The enzyme reaction was started by the addition of 10 μL of [^14C] stearoyl-CoA (American Radiolabeled Chemicals [ARC], Inc.) diluted to 10 μCi/mL with 9 mmol/L NADH. For evaluation of the compound, an enzyme reaction using rat liver microsome (20 μg) was performed for 15 min. The reaction was quenched by the addition of 10 μL of 2.5N NaOH, a plate seal was applied, and the reaction mixture was incubated overnight in a dry heater set to 65° C. to allow saponification. Solvent extraction of fatty acid was based on the Bligh&Dyer method (1). Formic acid:methanol:chloroform (1:6:3) (200 μL) was added, the state of single layer was maintained, the mixture was sufficiently stirred, and pure water (120 μL) was added to allow separation into two layers. The lower chloroform layer (10 μL) was spotted on reversed-phase TLC plate (RP-18, 1154230001, Merck Japan, Ltd.) and developed with acetonitrile:pure water:acetic:acid (95:4.5:0.5). The TLC plate was dried and transferred onto an Imaging Plate (Fuji Photo Film Co., Ltd.) for not less than 5 hr. For detection, BAS-5000 (Fuji Photo Film Co., Ltd) was used and the obtained spot images were converted to numerical values using Multi Gauge Ver2.3 (Fuji Photo Film Co., Ltd), based on which the SCD activity inhibitory rate (%) was determined.
row,SCD activity inhibitory rate (%),Compound
1,96,"Cc1noc(-c2ccc(N3CCC4(COc5ccccc54)C3)nn2)n1 (stereo not drawn) [Example 179 (long retention time), 1′-[6-(3-methyl-1,2,4-oxadiazol-5-yl)pyridazin-3-yl]spiro[1-benzofuran-3,3′-pyrrolidine]]"
2,99,"Cc1noc(-c2ccc(N3CCC4(C3)OCc3ccccc34)nn2)n1 (stereo not drawn) [Example 177, 1′-[6-(3-methyl-1,2,4-oxadiazol-5-yl)pyridazin-3-yl]-3H-spiro[2-benzofuran-1,3′-pyrrolidine]]"
3,97,"Cc1noc(-c2ccc(N3CCC4(C3)OCc3ccccc34)nn2)n1 (stereo not drawn) [Example 178, 1′-[6-(3-methyl-1,2,4-oxadiazol-5-yl)pyridazin-3-yl]-3H-spiro[2-benzofuran-1,3′-pyrrolidine]]"

# Same assay, conditions: rat liver microsome (20 μg), 15 min, [14C] stearoyl-CoA; test compound (10 mM) diluted to 3/1000 with 3× buffer, 10 μL in 30 μL reaction; read-out: SCD activity inhibitory rate (%)
row,inhibition at 10 µM [%],Compound
1,95,"Cc1nsc(-c2ccc(N3CCC4(CC3)NC(=O)c3ccccc3N4)nn2)n1 [Example 6, 1-[6-(3-methyl-1,2,4-thiadiazol-5-yl)pyridazin-3-yl]-1′H-spiro[piperidine-4,2′-quinazolin]-4′(3′H)-one]"
2,97,"Cc1noc(-c2ccc(N3CCC4(COc5ccccc54)C3)nn2)n1 (stereo not drawn) [Example 51, 1′-[6-(3-methyl-1,2,4-oxadiazol-5-yl)pyridazin-3-yl]spiro[1-benzofuran-3,3′-pyrrolidine]]"
3,99,"Cc1nsc(-c2ccc(N3CCC4(CC3)CN(c3cccc(F)c3)C(=O)O4)nn2)n1 [Example 29, 3-(3-fluorophenyl)-8-[6-(3-methyl-1,2,4-thiadiazol-5-yl)pyridazin-3-yl]-1-oxa-3,8-diazaspiro[4.5]decan-2-one]"
4,99,"Cc1nsc(-c2ccc(N3CCC4(COc5ccccc54)C3)nn2)n1 (stereo not drawn) [Example 50, 1′-[6-(3-methyl-1,2,4-thiadiazol-5-yl)pyridazin-3-yl]spiro[1-benzofuran-3,3′-pyrrolidine]]"
5,93,"C1=CC2(CCN(c3ccc(-c4ncns4)nn3)CC2)c2ccccc21 [Example 11, 1′-[6-(1,2,4-thiadiazol-5-yl)pyridazin-3-yl]spiro[indene-1,4′-piperidine]]"
6,93,"Cc1noc(-c2ccc(N3CCC4(CC3)CN(c3ccc(F)cc3)C(=O)O4)nn2)n1 [Example 47, 3-(4-fluorophenyl)-8-[6-(3-methyl-1,2,4-oxadiazol-5-yl)pyridazin-3-yl]-1-oxa-3,8-diazaspiro[4.5]decan-2-one]"
7,97,"Cc1nsc(-c2ccc(N3CCC4(CC3)Cc3ccccc3O4)nn2)n1 [Example 4, 1′-[6-(3-methyl-1,2,4-thiadiazol-5-yl)pyridazin-3-yl]-3H-spiro[1-benzofuran-2,4′-piperidine]]"
8,98,"O=C(NCC(O)c1ccccc1)c1ccc(N2CCC3(C=Cc4ccccc43)CC2)nn1 (stereo not drawn) [Example 60, N-(2-hydroxy-2-phenylethyl)-6-(1′H-spiro[indene-1,4′-piperidin]-1′-yl)pyridazine-3-carboxamide]"
9,97,"CC1CSC(c2ccc(N3CCC4(CC3)COc3ccccc34)nn2)=N1 (stereo not drawn) [Example 146, 1′-[6-(4-methyl-4,5-dihydro-1,3-thiazol-2-yl)pyridazin-3-yl]spiro[1-benzofuran-3,4′-piperidine]]"
10,99,"Cc1nsc(-c2ccc(N3CCC4(C=Cc5ccccc54)CC3)nn2)n1 [Example 2, 1′-[6-(3-methyl-1,2,4-thiadiazol-5-yl)pyridazin-3-yl]spiro[indene-1,4′-piperidine]]"
11,98,"O=C(N[C@H]1C[C@@H]1c1ccccc1)c1ccc(N2CCC3(C=Cc4ccccc43)CC2)nn1 [Example 126, N-[(1S,2R)-2-phenylcyclopropyl]-6-(1′H-spiro[indene-1,4′-piperidin]-1′-yl)pyridazine-3-carboxamide]"
12,100,"Cc1noc(-c2ccc(N3CCC4(Cc5ccccc5O4)C3)nn2)n1 (stereo not drawn) [Example 170, 1′-[6-(3-methyl-1,2,4-oxadiazol-5-yl)pyridazin-3-yl]-3H-spiro[1-benzofuran-2,3′-pyrrolidine]]"
13,94,"Cc1nsc(-c2ccc(N3CCC4(CC3)CN(c3ccccc3)C(=O)CO4)nn2)n1 [Example 32, 9-[6-(3-methyl-1,2,4-thiadiazol-5-yl)pyridazin-3-yl]-4-phenyl-1-oxa-4,9-diazaspiro[5.5]undecan-3-one]"
14,100,"OCc1noc(-c2ccc(N3CCC4(CC3)COc3ccccc34)nn2)n1 [Example 143, {5-[6-(1′H-spiro[1-benzofuran-3,4′-piperidin]-1′-yl)pyridazin-3-yl]-1,2,4-oxadiazol-3-yl}methanol]"
15,100,"Cc1noc(-c2ccc(N3CCC4(C3)OCc3ccccc34)nn2)n1 (stereo not drawn) [Example 43, 1′-[6-(3-methyl-1,2,4-oxadiazol-5-yl)pyridazin-3-yl]-3H-spiro[2-benzofuran-1,3′-pyrrolidine]]"
16,100,"OCc1nc(-c2ccc(N3CCC4(CC3)COc3ccccc34)nn2)no1 [Example 148, {3-[6-(1′H-spiro[1-benzofuran-3,4′-piperidin]-1′-yl)pyridazin-3-yl]-1,2,4-oxadiazol-5-yl}methanol]"
17,92,"Cc1nsc(-c2ccc(N3CCC4(CC3)NC(=O)c3ccccc3O4)nn2)n1 [Example 31, 1′-[6-(3-methyl-1,2,4-thiadiazol-5-yl)pyridazin-3-yl]spiro[1,3-benzoxazine-2,4′-piperidin]-4(3H)-one]"
18,100,"OCc1noc(-c2ccc(N3CCC4(COc5ccccc54)C3)nn2)n1 (stereo not drawn) [Example 157, {5-[6-(1′H-spiro[1-benzofuran-3,3′-pyrrolidin]-1′-yl)pyridazin-3-yl]-1,2,4-oxadiazol-3-yl}methanol]"
19,99,"Cc1nc(-c2ccc(N3CCC4(C3)OCc3ccccc34)nn2)no1 (stereo not drawn) [Example 150, 1′-[6-(5-methyl-1,2,4-oxadiazol-3-yl)pyridazin-3-yl]-3H-spiro[2-benzofuran-1,3′-pyrrolidine]]"
20,99,"Cc1noc(-c2ccc(N3CCC4(C3)C(=O)N(C)c3ccccc34)nn2)n1 (stereo not drawn) [Example 159, 1-methyl-1′-[6-(3-methyl-1,2,4-oxadiazol-5-yl)pyridazin-3-yl]spiro[indole-3,3′-pyrrolidin]-2(1H)-one]"
21,98,"O=C(NCCc1cccnc1)c1ccc(N2CCC3(C=Cc4ccccc43)CC2)nn1 [Example 74, N-(2-(pyridin-3-yl)ethyl)-6-(1′H-spiro[indene-1,4′-piperidin]-1′-yl)pyridazine-3-carboxamide]"
22,100,"Cc1nsc(-c2ccc(N3CCC4(CC3)COc3ccccc34)nn2)n1 [Example 17, 1′-[6-(3-methyl-1,2,4-thiadiazol-5-yl)pyridazin-3-yl]spiro[1-benzofuran-3,4′-piperidine]]"
23,99,"O=C(CNC(=O)c1ccc(N2CCC3(C=Cc4ccccc43)CC2)nn1)c1ccccc1 [Example 55, N-(2-oxo-2-phenylethyl)-6-(1′H-spiro[indene-1,4′-piperidin]-1′-yl)pyridazine-3-carboxamide]"
24,100,"Cc1nsc(-c2ccc(N3CCC4(CC3)CC(=O)c3ccccc3O4)nn2)n1 [Example 5, 1′-[6-(3-methyl-1,2,4-thiadiazol-5-yl)pyridazin-3-yl]spiro[chromene-2,4′-piperidin]-4(3H)-one]"
25,100,"OCc1noc(-c2ccc(N3CCC4(C3)OCc3ccccc34)nn2)n1 (stereo not drawn) [Example 156, {5-[6-(1′H,3H-spiro[2-benzofuran-1,3′-pyrrolidin]-1′-yl)pyridazin-3-yl]-1,2,4-oxadiazol-3-yl}methanol]"
26,100,"O=C(NCC(O)Cc1ccccc1)c1ccc(N2CCC3(C=Cc4ccccc43)CC2)nn1 (stereo not drawn) [Example 86, N-(2-hydroxy-3-phenylpropyl)-6-(1′H-spiro[indene-1,4′-piperidin]-1′-yl)pyridazine-3-carboxamide]"
27,98,"Cc1nsc(-c2ccc(N3CCC4(C=Cc5ccccc5O4)CC3)nn2)n1 [Example 20, 1′-[6-(3-methyl-1,2,4-thiadiazol-5-yl)pyridazin-3-yl]spiro[chromene-2,4′-piperidine]]"
